Laboratory results from PMC9692523, “Exposure to (Poly)phenol Metabolites after a Fruit and Vegetable Supplement Intake: A Double-Blind, Cross-Over, Randomized Trial” (Nutrients, 2022).

What was measured:
[1] = Plasma pharmacokinetics of phenolic metabolites after one 450 mg capsule of the supplement (UHPLC-ESI-MS/MS); format: in vivo, human; conditions: for Cmax / Tmax / Tpres (time of presence of metabolites in circulation): n = 10, mean ± SEM; for Tpres (time of presence of metabolites in circulation): interval between first and last appearance; for AUC0-24: supplemented volunteers (n = 10), 450 mg capsule, mean ± SEM
Procedure: (§1) This study was designed as a 3-week randomized, double-blind, cross-over clinical trial. Eligible participants were randomized using simple block randomization of 1:1. Once enrolled, subjects received either one 450 mg capsule of the test supplement or one 450 mg capsule of placebo on the first day of the study (Phase I: D1). After three days of sampling, volunteers started a wash-out period of 1 week and were then enrolled for the second test Phase with ingestion of the opposite supplement (Phase II: D1) (Figure 1). The placebo product was 100% maltodextrin, which was (poly)phenol-free.
On the day of the test (D1), volunteers visited the Research Center after an overnight fast. Blood was collected at T0 to determine baseline levels of plasma phenolic metabolites. Then, volunteers were invited to take the 450 mg capsule of the supplement or the placebo with 250 mL of still water (Figure 2). Additional blood samples were then collected at 1 h (D1, T1), 2 h (D1, T2), 3 h (D1, T3), 4 h (D1, T4), 5 h (D1, T5), 6 h (D1, T6), 8 h (D1, T8), 10 h (D1, T10) and 24 h (D2, T24) after capsule intake. Blood was taken from the basilica vein and centrifuged at 3000 rpm for 10 min at 4 °C. Plasma was immediately extracted and frozen at −80 °C for further analysis.
Plasma samples were then extracted using a solid phase extraction (SPE) method, as previously reported by Castello and colleagues. Briefly, 350 µL of plasma samples was diluted (1:1) with phosphoric acid 4% (v/v). After plate activation, 600 µL of the diluted plasma samples was loaded on a 96 well µ-SPE HLB (Oasis® HLB µElution Plate 30 µm, Waters, Milford, Massachusetts, MA, USA). Samples were washed with 200 µL of water and 200 µL of 0.2% (v/v) acetic acid. Finally, samples were eluted with 60 µL of methanol for UHPLC-ESI-MS/MS analysis.
(§2) Plasma and urine samples were analyzed by a UHPLC DIONEX Ultimate 3000 equipped with a triple quadrupole TSQ Vantage (Thermo Fisher Scientific Inc) fitted with a heated ESI (H-ESI) (Thermo Fisher Scientific Inc) probe, as previously reported. Separations were carried out by means of a Kinetex EVO C18 (100 × 2.1 mm) column, 2.6 µm particle size (Phenomenex, Torrance, CA, USA), installed with a pre-column (Phenomenex). Mobile phase A was 0.2% formic acid in water, and mobile phase B was acetonitrile containing 0.2% formic acid. The gradient started with 5% B, and isocratic conditions were maintained for 0.5 min, reaching 95% B after 6.5 min, followed by 1 min at 95%. The starting gradient was then immediately re-established and maintained for 5 min to re-equilibrate the column. The flow rate was 0.4 mL/min, the injection volume was 5 µL and the column temperature was set at 40 °C.
(§3) The applied MS method consisted of the selective determination of each target precursor ion by the acquisition of characteristic product ion in selective reaction monitoring (SRM) mode (Supplemental Table S2). For all the analyses, the spray voltage was set at 3 kV, the vaporizer temperature at 300 °C and the capillary temperature operated at 270 °C. The sheath gas flow was 50 units, and auxiliary gas pressure was set to 10 units. Ultra-high purity argon gas was used for collision-induced dissociation (CID). The S-lens values were defined for each compound based on infusion parameter optimization. Conversely, for those compounds not available for infusion, the S-lens values were set using the values obtained for the chemically closest available standards. Quantification was performed with calibration curves of standards when available or using the most structurally similar compound. Data processing was performed using Xcalibur software (Thermo Scientific Inc., San Jose, CA, USA).
All data were expressed as mean values ± standard deviation (SD) and mean values ± standard error to the mean (SEM) for metabolites in blood and urine samples. […]

[2] = Urinary excretion of phenolic metabolites over 48 h after one 450 mg capsule of the supplement (UHPLC-ESI-MS/MS); format: in vivo, human; conditions: urine, n = 10, mean ± SEM; for Urinary excretion 0 (h): baseline (day before)
Procedure: as §1
Urine samples were collected the day before (baseline) and during the 48 h period following the supplementation (T0-T3, T3-T6, T6-T10, T10-T14, T14-T24, T24-T32 and T32-T48) (Figure 2). Urine volumes at each collection period were registered, and samples were aliquoted and stored at −80 °C until further processing.
Then, urine samples were prepared as previously reported by Brindani and colleagues. Briefly, urine samples were defrosted, vortexed, diluted in 0.1% formic acid in water (1:4, v/v) and centrifuged at 12,000 rpm for 5 min. Finally, urine samples were filtered (0.45 µm nylon filter) prior to UHPLC-ESI-MS/MS analysis.
as §2, §3
All data were expressed as mean values ± standard deviation (SD) and mean values ± standard error to the mean (SEM) for metabolites in blood and urine samples. PKSolver add-on program in Microsoft Excel was used to determine pharmacokinetic parameters of blood phenolic metabolites, including time to reach the maximum plasma concentration (Tmax, h), maximum plasma concentration (Cmax, nmol/L), area under the curve (AUC0-24, nmol/L·h), and time of presence of metabolites in circulation (Tpres, h). Tpres was calculated by taking the time interval between the first appearance and the last appearance of the considered metabolite. Coefficient of variation (CV) was evaluated for each metabolite and multivariate principal component analysis (PCA) was applied to explore the inter-individual variation in the urinary metabolites among the participants. […]

O=C1CCC(Cc2cc(O)cc(OC3OC(C(=O)O)C(O)C(O)C3O)c2)O1 (stereo not drawn) [compound 10]
Cmax [1]: 15 ± 5.61 nM
Tmax [1]: 12.78 ± 2.85 h
Tpres (time of presence of metabolites in circulation) [1]: 14.44 ± 2.42 h
AUC0-24 [1]: 0.12555 ± 0.04768 µM·h
Urinary excretion 0 (h) [2]: 5.34 ± 5.34 µg
Urinary excretion 0–3 (h) [2]: 0.00 ± 0.00 µg
Urinary excretion 3–6 (h) [2]: 101.70 ± 51.36 µg
Urinary excretion 6–10 (h) [2]: 316.86 ± 132.04 µg
Urinary excretion 10–14 (h) [2]: 199.53 ± 88.98 µg
Urinary excretion 14–24 (h) [2]: 624.93 ± 108.36 µg
Urinary excretion 24–32 (h) [2]: 281.58 ± 60.75 µg
Urinary excretion 32–48 (h) [2]: 65.29 ± 25.62 µg
Urinary excretion Total (0–48 h) [2]: 1595.23 ± 260.71 µg

O=C1CCC(Cc2cc(O)cc(OS(=O)(=O)O)c2)O1 (stereo not drawn) [compound 16]
Cmax [1]: 9.97 ± 4.31 nM
Tmax [1]: 8.88 ± 2.41 h
Tpres (time of presence of metabolites in circulation) [1]: 10.57 ± 2.72 h
AUC0-24 [1]: 0.03046 ± 0.01185 µM·h
Urinary excretion 0 (h) [2]: 18.25 ± 10.84 µg
Urinary excretion 0–3 (h) [2]: 4.64 ± 3.47 µg
Urinary excretion 3–6 (h) [2]: 439.69 ± 219.42 µg
Urinary excretion 6–10 (h) [2]: 1256.55 ± 516.93 µg
Urinary excretion 10–14 (h) [2]: 944.18 ± 474.02 µg
Urinary excretion 14–24 (h) [2]: 3986.28 ± 711.64 µg
Urinary excretion 24–32 (h) [2]: 1721.60 ± 393.97 µg
Urinary excretion 32–48 (h) [2]: 586.15 ± 240.93 µg
Urinary excretion Total (0–48 h) [2]: 8957.33 ± 1361.49 µg

O=C1CCC(Cc2cccc(O[C@@H]3O[C@H](C(=O)O)[C@@H](O)[C@H](O)[C@H]3O)c2)O1 (stereo partly drawn) [compound 17]
Cmax [1]: 6.34 ± 1.66 nM
Tmax [1]: 5.88 ± 0.95 h
Tpres (time of presence of metabolites in circulation) [1]: 7.13 ± 2.27 h
AUC0-24 [1]: 0.022 ± 0.00641 µM·h
Urinary excretion 0 (h) [2]: 15.01 ± 15.01 µg
Urinary excretion 0–3 (h) [2]: 15.42 ± 15.42 µg
Urinary excretion 3–6 (h) [2]: 196.48 ± 138.99 µg
Urinary excretion 6–10 (h) [2]: 169.91 ± 105.95 µg
Urinary excretion 10–14 (h) [2]: 65.96 ± 36.27 µg
Urinary excretion 14–24 (h) [2]: 468.44 ± 330.34 µg
Urinary excretion 24–32 (h) [2]: 81.71 ± 28.26 µg
Urinary excretion 32–48 (h) [2]: 16.56 ± 16.56 µg
Urinary excretion Total (0–48 h) [2]: 1029.49 ± 394.77 µg

O=C1CCC(Cc2ccc(OS(=O)(=O)O)c(O)c2)O1 (stereo not drawn) [compound 21]
Cmax [1]: 40 ± 16.9 nM
Tmax [1]: 7.00 ± 0.75 h
Tpres (time of presence of metabolites in circulation) [1]: 12.15 ± 1.84 h
AUC0-24 [1]: 0.1417 ± 0.05037 µM·h
Urinary excretion 0 (h) [2]: 344.60 ± 186.50 µg
Urinary excretion 0–3 (h) [2]: 166.29 ± 126.77 µg
Urinary excretion 3–6 (h) [2]: 2548.76 ± 1207.06 µg
Urinary excretion 6–10 (h) [2]: 2277.16 ± 795.52 µg
Urinary excretion 10–14 (h) [2]: 919.49 ± 314.48 µg
Urinary excretion 14–24 (h) [2]: 3618.13 ± 985.44 µg
Urinary excretion 24–32 (h) [2]: 1346.37 ± 481.02 µg
Urinary excretion 32–48 (h) [2]: 389.78 ± 215.48 µg
Urinary excretion Total (0–48 h) [2]: 11,610.60 ± 1923.81 µg

O=C(O)c1ccc(O)c(OC2OC(C(=O)O)C(O)C(O)C2O)c1 (stereo not drawn) [compound 35]
Urinary excretion 0 (h) [2]: 1.13 ± 1.13 µg
Urinary excretion 0–3 (h) [2]: 14.20 ± 4.88 µg
Urinary excretion 3–6 (h) [2]: 24.68 ± 5.82 µg
Urinary excretion 6–10 (h) [2]: 12.53 ± 4.10 µg
Urinary excretion 10–14 (h) [2]: 3.10 ± 1.12 µg
Urinary excretion 14–24 (h) [2]: 4.51 ± 1.34 µg
Urinary excretion Total (0–48 h) [2]: 60.16 ± 9.86 µg

COc1cc(C(=O)O)cc(OC)c1O.COc1cc(C(=O)O)cc(OC)c1O [compound 39]
Urinary excretion 0 (h) [2]: 0.71 ± 0.46 µg
Urinary excretion 0–3 (h) [2]: 8.71 ± 8.71 µg
Urinary excretion 3–6 (h) [2]: 3.89 ± 3.81 µg
Urinary excretion 6–10 (h) [2]: 3.57 ± 2.82 µg
Urinary excretion 10–14 (h) [2]: 1.42 ± 1.38 µg
Urinary excretion 14–24 (h) [2]: 3.63 ± 2.95 µg
Urinary excretion 24–32 (h) [2]: 3.33 ± 2.94 µg
Urinary excretion 32–48 (h) [2]: 8.73 ± 8.35 µg
Urinary excretion Total (0–48 h) [2]: 33.92 ± 30.72 µg

O=C(O)[C@H]1O[C@@H](Oc2ccc3c(c2)oc(=O)c2ccc(O)cc23)[C@H](O)[C@@H](O)[C@@H]1O [compound 43]
Urinary excretion 6–10 (h) [2]: 6.91 ± 6.55 µg
Urinary excretion 10–14 (h) [2]: 5.49 ± 5.21 µg
Urinary excretion 14–24 (h) [2]: 36.41 ± 34.54 µg
Urinary excretion 24–32 (h) [2]: 14.38 ± 9.83 µg
Urinary excretion 32–48 (h) [2]: 5.33 ± 5.05 µg
Urinary excretion Total (0–48 h) [2]: 68.53 ± 55.19 µg

O=C(O)[C@H]1O[C@@H](Oc2ccc3c(c2)oc(=O)c2ccccc23)[C@H](O)[C@@H](O)[C@@H]1O [compound 44]
Urinary excretion 6–10 (h) [2]: 5.31 ± 5.04 µg
Urinary excretion 10–14 (h) [2]: 39.56 ± 37.53 µg
Urinary excretion 14–24 (h) [2]: 144.45 ± 90.90 µg
Urinary excretion 24–32 (h) [2]: 74.85 ± 48.79 µg
Urinary excretion 32–48 (h) [2]: 30.99 ± 29.40 µg
Urinary excretion Total (0–48 h) [2]: 295.17 ± 185.26 µg

O=C(O)c1ccc(O)c(OS(=O)(=O)O)c1 [compound 45]
Time of first plasma concentration (absorption) peak ([1]; after supplement intake): 1.38 ± 0.18 h
Cmax [1]: 43.6 ± 7.34 nM
Tmax [1]: 2.10 ± 0.46 h
Tpres (time of presence of metabolites in circulation) [1]: 13.45 ± 2.80 h
AUC0-24 [1]: 0.19606 ± 0.03272 µM·h

COc1cc(CCC(=O)O)ccc1OS(=O)(=O)O [compound 46]
Cmax [1]: 169 ± 156 nM
Tmax [1]: 6.43 ± 2.97 h
Tpres (time of presence of metabolites in circulation) [1]: 7.14 ± 3.61 h
AUC0-24 [1]: 0.55828 ± 0.53121 µM·h

O=C(O)CNC(=O)c1ccc(O)cc1 [compound 47]
Cmax [1]: 816 ± 269 nM
Tmax [1]: 6.50 ± 1.28 h
Tpres (time of presence of metabolites in circulation) [1]: 21.55 ± 0.74 h
AUC0-24 [1]: 5.71944 ± 1.32787 µM·h
